Assay results reported in patent US9562044B2, “2-acylaminothiazole derivative or salt thereof” (ASTELLAS PHARMA INC., priority 2013, dated 2017).
Structures can show the parent of a compound that is named as a salt.

Experiments:
human c-Mpl receptor = target: T1, human c-Mpl receptor (Homo sapiens, UniProt P40238); experiment: Human c-Mpl-introduced Ba/F3 cell proliferative activity; assay type: cell-based; details: concentration showing 30% proliferation; 100% = positive control at 1 μM
T1 construct: expressed in transfected cells
T1 sequence (P40238 26-635): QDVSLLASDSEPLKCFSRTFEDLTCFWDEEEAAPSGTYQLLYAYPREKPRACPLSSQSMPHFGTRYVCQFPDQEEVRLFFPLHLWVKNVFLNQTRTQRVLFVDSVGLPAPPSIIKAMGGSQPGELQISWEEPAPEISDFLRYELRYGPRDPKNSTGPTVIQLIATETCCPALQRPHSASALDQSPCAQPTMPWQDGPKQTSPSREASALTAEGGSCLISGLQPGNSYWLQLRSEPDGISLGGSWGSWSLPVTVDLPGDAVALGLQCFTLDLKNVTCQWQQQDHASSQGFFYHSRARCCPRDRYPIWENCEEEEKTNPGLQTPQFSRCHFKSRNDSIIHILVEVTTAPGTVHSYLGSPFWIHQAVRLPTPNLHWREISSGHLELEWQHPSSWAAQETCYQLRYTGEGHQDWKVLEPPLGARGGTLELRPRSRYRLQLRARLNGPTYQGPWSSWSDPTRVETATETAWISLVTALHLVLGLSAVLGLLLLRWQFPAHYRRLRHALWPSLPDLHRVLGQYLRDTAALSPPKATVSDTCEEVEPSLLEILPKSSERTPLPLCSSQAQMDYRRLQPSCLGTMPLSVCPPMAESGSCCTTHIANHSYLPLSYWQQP
Description: Evaluation of Human c-Mpl-Introduced Ba/F3 Cell Proliferative Activity
The human c-Mpl-introduced Ba/F3 cell proliferative activity was measured by the following method.
As a positive control, 1-(5-{[4-(4-chloro-2-thienyl)-5-{[(2R)-2-methylpyrrolidin-1-yl]methyl}-1,3-thiazol-2-yl]carbamoyl}-3-fluoropyridin-2-yl)piperidine-4-carboxylic acid hydrochloride, which is disclosed as Example 315 in Patent Document 1 and represented by the formula A1, was used. It is known that the compound has a good human c-Mpl-introduced Ba/F3 cell proliferative activity as disclosed in Table 1 of Patent Document 1.
a) Construction of Human c-Mpl Receptor Expression Vector
A human c-mpl receptor gene (GenBank Accession No. M90102.1) was introduced into an expression vector pEF-BOS (Nucleic Acids Res. 18, 5322, 1990).
b) Construction of Cell Stably Expressing Human c-Mpl Receptor
A human c-Mpl receptor expression vector was introduced into a Ba/F3 cell (RIKEN BRC: RCB0805). For the introduction, an electroporation method was used. pEF-BOS-c-mpl (10 μg), pSV2bsr (1 μg, Kaken Pharmaceutical Co., Ltd.) and 1×10^7 Ba/F3 cells were put into a cuvette having a gap width of 0.4 cm, and electroporated under the conditions of 1.5 kV (25 μF) by a Gene Pulser (registered trademark) (BioRad). The cells were cultured in an RPMI-1640 culture medium containing 0.5% WEHI conditioned media (BD Biosciences) and 10% fetal bovine serum for 3 days, and then cultured in an RPMI-1640 culture medium, to which 10 μg/mL blasticidin had been further added, for 30 days to acquire a drug-resistant clone.
c) Measurement of Cell Proliferative Activity
The cells obtained in b) above was cultured in an RPMI-1640 culture medium containing 0.5% WEHI conditioned media, 10% fetal bovine serum, and used. On the day before the experiment, test substances (final concentration of 100 nM to 10 μM) which had been dissolved in a culture medium for assay (RPMI-1640 culture medium containing 10% fetal bovine serum) were added to a 384-well plate (Lot No. 781185, Greiner Bio-One). The cells in the culture medium that had been replaced with a culture medium for assay were dispensed into a 384-well plate, to which the test substances had been added in advance, to 1×10^4 cells/well, and cultured at 37° C. and 5% CO2 overnight. On the experiment day, a solution of a Cell Counting Kit (Dojindo Laboratories) was added to each well of the 384-well plate and cultured at 37° C. and 5% CO2 for about 5 hours. Thereafter, the absorbance (absorption wavelength of 450 nm) of each well was measured using Safire^2™ (TECAN) and used as the index of the number of cells. Further, as a negative control, a well in which the test substance had been not added was prepared.
The absorbance of the well without the test substance was set to 0%, and the absorbance in the case where the positive control was added at a final concentration of 1 μM was set to 100%. From the absorbance in the case where the test substance had been added, a cell proliferation rate (%) was calculated. From the obtained results, the test substance concentration showing 30% proliferation was calculated as an EC30 value by a logistic regression method.

isolated rat bladder = experiment: Transmural electrical field stimulation-induced contraction of isolated rat bladder; details: AUC of contractile response, value before treatment = 100%, SD female rat bladder strip, read-out: Enhancement rate of isolated bladder contraction (% of pre)
Description: Effects on Transmural Electrical Field Stimulation-Induced Contraction of Isolated Rat Bladder
As an effect on the nerve stimulation-dependent bladder contraction in vitro, the effect of the Example compound of the present invention in the transmural electrical field stimulation-induced contraction of isolated rat bladder was measured by the following method. That is, from the bladder isolated from a Spraque-Dawley (SD) female rat (Japan SLC, Inc.), a longitudinal bladder strip having a width of about 2 mm and a length of about 10 mm was prepared. The prepared bladder strip was suspended in an organ bath filled with 10 mL of a Krebs-Henseleit solution. The Krebs-Henseleit solution was bubbled with 95% O2 and 5% CO2, and kept at 37° C. After stabilization at an initial tension of 1 g, contraction was induced twice with 60 mM KCl. The strip was washed with the Krebs-Henseleit solution and stabilized, and then contraction was induced with transmural electrical field stimulation at 20 V (stimulation frequency of 8 Hz, pulse width of 0.3 msec, and stimulation time of 10 seconds) by an electrical stimulation device (Nihon Kohden Corporation). At an interval of 2 minutes, transmural electrical field stimulation was repeated and the voltage was adjusted to make the contractile amplitude about 50% of the contractile response by 20 V. After stabilization of the contraction by the transmural electrical field stimulation, 10 μL of the test substance (final concentrations of 3 μM, 10 μM, and 30 μM), which had been dissolved in 100% dimethylsulfoxide in advance was added. The test substance was cumulatively administered at the next concentration after the contractile response at a lower concentration had been stabilized. The responses were put into a personal computer through PowerLab (registered trademark) (AD Instruments), and analyzed with LabChart (registered trademark) (AD Instruments). The area under the response of each contractile response (area under curve, AUC) was calculated and the value before the treatment with the test substance was set to 100%. Based on this, the enhancement rate of the isolated bladder contraction (% of pre) after the treatment with the test substance was calculated.
The enhancement rates of the isolated bladder contraction due to several 10 μM Example compounds which are the compounds of the formula (I) are shown in Table 2.

| Structure (SMILES) | Test Example 2 EC30 (human c-Mpl receptor) | activity at 10 µM (isolated rat bladder) |
| --- | --- | --- |
| CCOC[C@@H]1CCCN1Cc1sc(NC(=O)c2cnc(N3CCC(C(=O)O)CC3)cn2)nc1-c1cc(F)c(OC)c(C(F)(F)F)c1 [Example 84] | >10 µM | 140% |
| CCOc1ccc(-c2nc(NC(=O)c3cnc(N4CCC(C(=O)O)CC4)cn3)sc2CN2CCC[C@H]2CC)cc1C(F)(F)F [Example 203] | >10 µM |  |
| CC[C@@H]1CCCN1Cc1sc(NC(=O)c2cnc(N3CCC(C(=O)O)CC3)cn2)nc1-c1ccc(OCCCOC)c(C(F)(F)F)c1 [Example 21] | >10 µM |  |
| COc1c(Cl)cc(-c2nc(NC(=O)c3cnc(N4CCC(C(=O)O)CC4)cn3)sc2CN2CCC[C@H]2C)cc1Cl [Example 92] | >10 µM | 132% |
| COCCN(Cc1sc(NC(=O)c2cnc(N3CCC(C(=O)O)CC3)cn2)nc1-c1cc(Cl)cs1)CC(C)C [Example 152] | 0.58 µM |  |
| CCOC[C@@H]1CCCN1Cc1sc(NC(=O)c2cnc(N3CCC(C(=O)O)CC3)cn2)nc1-c1cc(F)c(OC)c(Cl)c1 [Example 69] | >10 µM | 152% |
| CC[C@@H]1CCCN1Cc1sc(NC(=O)c2cnc(N3CCC(F)(C(=O)O)CC3)cn2)nc1-c1ccc(OC)c(C(F)(F)F)c1 [Example 125] | >10 µM |  |
| COc1cc(-c2nc(NC(=O)c3cnc(N4CCC(C(=O)O)CC4)cn3)sc2CN2CCCC[C@H]2C)cc(C(F)(F)F)c1 [Example 2, 1-{5-[(4-[3-methoxy-5-(trifluoromethyl)phenyl]-5-{[(2R)-2-methylpiperidin-1-yl]methyl}-1,3-thiazol-2-yl)carbamoyl]pyrazin-2-yl}piperidine-4-carboxylic acid dihydrochloride] | >10 µM |  |
| C[C@@H]1CCCN1Cc1sc(NC(=O)c2cnc(N3CCC(F)(C(=O)O)CC3)cn2)nc1-c1ccc(F)c(C(F)(F)F)c1 [Example 133] | 1.1 µM |  |
| CCCOc1ccc(-c2nc(NC(=O)c3cnc(N4CCC(C(=O)O)CC4)cn3)sc2CN2CCCC(C)(C)C2)cc1C(F)(F)F [Example 27] | >10 µM |  |
| CCCOc1ccc(-c2nc(NC(=O)c3cnc(N4CCC(C(=O)O)CC4)cn3)sc2CN2CCC[C@H]2CC)cc1C(F)(F)F [Example 1, 1-{5-[(5-{[(2R)-2-ethylpyrrolidin-1-yl]methyl}-4-[4-propoxy-3-(trifluoromethyl)phenyl]-1,3-thiazol-2-yl)carbamoyl]pyrazin-2-yl}piperidine-4-carboxylic acid dihydrochloride] | >10 µM | 132% |
| Cc1cc(OC(F)(F)F)cc(-c2nc(NC(=O)c3cnc(N4CCC(F)(C(=O)O)CC4)cn3)sc2CN2CCC[C@H]2C)c1 [Example 3, 4-fluoro-1-{5-[(5-{[(2R)-2-methylpyrrolidin-1-yl]methyl}-4-[3-methyl-5-(trifluoromethoxy)phenyl]-1,3-thiazol-2-yl)carbamoyl]pyrazin-2-yl}piperidine-4-carboxylic acid dihydrochloride] | 4.8 µM |  |
| CC(C)Oc1ccc(-c2nc(NC(=O)c3cnc(N4CCC(C(=O)O)CC4)cn3)sc2CN2CCCC(C)(C)C2)cc1C(F)(F)F [Example 20] | >10 µM |  |
| COc1ccc(-c2nc(NC(=O)c3cnc(N4CCC(C(=O)O)CC4)cn3)sc2CN2CCC[C@H]2C(F)(F)F)cc1C(F)(F)F [Example 179] | >10 µM | 120% |
| C[C@@H]1CCCN1Cc1sc(NC(=O)c2cnc(N3CCC(F)(C(=O)O)CC3)cn2)nc1-c1cc(F)cc(C(F)(F)F)c1 [Example 128] | 8.4 µM |  |
| C[C@@H]1CCCCN1Cc1sc(NC(=O)c2cnc(N3CCC(C(=O)O)CC3)cn2)nc1-c1cc(Cl)cs1 [Example 142] | 0.38 µM |  |
| COCCN(Cc1sc(NC(=O)c2cnc(N3CCC(C(=O)O)CC3)cn2)nc1-c1cc(C(F)(F)F)cc(C(F)(F)F)c1)CC(C)C [Example 38] | >10 µM |  |
| COc1ccc(-c2nc(NC(=O)c3cnc(N4CCC(C(=O)O)CC4)cn3)sc2CN2CCCC2C(C)C)cc1C(F)(F)F (stereo not drawn) [Example 188] | >10 µM | 128% |
| O=C(Nc1nc(-c2ccc(OCCCF)c(C(F)(F)F)c2)c(CN2CCC[C@H]2C(F)(F)F)s1)c1cnc(N2CCC(C(=O)O)CC2)cn1 [Example 204] | >10 µM |  |
| CCCC1CCCN1Cc1sc(NC(=O)c2cnc(N3CCC(C(=O)O)CC3)cn2)nc1-c1ccc(OC(C)C)c(C(F)(F)F)c1 (stereo not drawn) [Example 19] | >10 µM | 124% |
| CCCN(CCOC)Cc1sc(NC(=O)c2cnc(N3CCC(C(=O)O)CC3)cn2)nc1-c1cc(Cl)cs1 [Example 146] | 0.82 µM |  |
| C[C@@H]1CCCN1Cc1sc(NC(=O)c2cnc(N3CCC(C(=O)O)CC3)cn2)nc1-c1ccc(N(C)C)c(C(F)(F)F)c1 [Example 11] | >10 µM |  |
| C[C@@H]1CCCN1Cc1sc(NC(=O)c2cnc(N3CCC(C(=O)O)CC3)cn2)nc1-c1cc(F)cc(C(F)(F)F)c1 [Example 150] | >10 µM |  |
| CC[C@@H]1CCCN1Cc1sc(NC(=O)c2cnc(N3CCC(C(=O)O)CC3)cn2)nc1-c1cc(Cl)cs1 [Example 196] |  | 125% |
| C[C@@H]1CCCN1Cc1sc(NC(=O)c2cnc(N3CCC(O)(C(=O)O)CC3)cn2)nc1-c1cc(Cl)cs1 [Example 129] | 0.77 µM |  |
| CCOc1ccc(-c2nc(NC(=O)c3cnc(N4CCC(C(=O)O)CC4)cn3)sc2CN2CCC[C@H]2C)cc1C(F)(F)F [Example 200] | >10 µM |  |
